Test results from patent US11524969B2, “Pyrrolobenzodiazepines and conjugates thereof as antitumour agents” (MEDIMMUNE LIMITED, priority 2018, dated 2022).

tested on: K562; assay: K562 assay, in vitro cytotoxicity of PBD payloads (MTS, 4 days); format: cell-based; settings: Homo sapiens, K562, 96 h; 4 days incubation, mean of three independent replicates
Method: The potency of each of the PBD molecules were measured via in vitro cytotox assays in the carcinoma cell line K562.
(§1) Solid PBD material was dissolved in DMSO to a 2 mM stock solution, from which eight serial dilutions were made at a 1:10 ratio in DMSO and stored at −20° C. until use.
Adherent K562 cells were washed with D-PBS and detached with Trypsin-EDTA, cell density and viability were then determined in duplicate by Trypan blue exclusion assay using an automated cell counter (LUNA-II™). Cell suspension was diluted to 1×10^5 cells/ml in growth media (RPMI 1640 with Glutamax+10% (v/v) HyClone™ Fetal Bovine Serum) and vortexed before dispensing 2 mL per well into sterile 3 mL polypropylene plates. […] At the end of the incubation period time (4 days), cell viability was measured by CellTiter 96® Aqueous One (MTS) assay, which was dispensed at 20 μl/well and incubated for 4 hours at 37° C., 5% CO2. Plates were then read on an EnVision® Multi-label Plate Reader (Perkin Elmer) using absorbance at 490 nm.
Cell survival percentage was calculated from the mean absorbance of the 2 replicate wells for each sample, compared to the mean absorbance in the two control wells treated with DMSO only (100%). The IC50 was determined by fitting each data set to sigmoidal dose-response curves with a variable slope using the non-linear curve fit algorithm on the GraphPad Prism software (San Diego, Calif.). […]

In order of falling IC50:
1. COc1cc2c(cc1OCc1cc(COc3cc4c(cc3OC)C(=O)N3C=C(C)C[C@H]3C=N4)cc(C(=O)O)c1)N=C[C@@H]1CC(C)=CN1C2=O [Compound 49, 3,5-bis((((S)-7-methoxy-2-methyl-5-oxo-5,11a-dihydro-1H-benzo[e]pyrrolo[1,2-a][1,4]diazepin-8-yl)oxy)methyl)benzoic acid]  1.84 nM
2. COC(=O)c1cc(COc2cc3c(cc2OC)C(=O)N2C=C(C)C[C@H]2C=N3)cc(COc2cc3c(cc2OC)C(=O)N2C=C(C)C[C@H]2C=N3)c1 [Compound 47, Methyl 3,5-bis((((S)-7-methoxy-2-methyl-5-oxo-5,11a-dihydro-1H-benzo[e]pyrrolo[1,2-a][1,4]diazepin-8-yl)oxy)methyl)benzoate]  0.162 nM

tested on: NCI-N87; assay: NCI-N87 assay, in vitro cytotoxicity of PBD payloads (MTS, 7 days); format: cell-based; settings: Homo sapiens, NCI-N87, 168 h; 7 days incubation, mean of three independent replicates
Method: The potency of each of the PBD molecules were measured via in vitro cytotoxicity assays in the carcinoma cell line NCI-N87.
as §1
Adherent NCI-N87 cells were washed with D-PBS and detached with Trypsin-EDTA, cell density and viability were then determined in duplicate by Trypan blue exclusion assay using an automated cell counter (LUNA-II™). Cell suspension was diluted to 1×10^5 cells/ml in growth media (RPMI 1640 with Glutamax+10% (v/v) HyClone™ Fetal Bovine Serum) and vortexed before dispensing 2 mL per well into sterile 3 mL polypropylene plates. Warhead dilutions were then dispensed into the appropriate wells at 10 μl/well and mixed by repeat pipetting. For control wells 10 μl of DMSO was dispensed onto 2 mL cell suspension, and thoroughly mixed. 100 μl of each sample was then aliquoted into 2 replicate wells of a sterile flat 96-well microplate and incubated in a 37° C. CO2-gassed (5%) incubator. At the end of the incubation period time (7 days), cell viability was measured by CellTiter 96® Aqueous One (MTS) assay, which was dispensed at 20 μl/well and incubated for 4 hours at 37° C., 5% CO2.
Plates were then read on an EnVision® Multi-label Plate Reader (Perkin Elmer) using absorbance at 490 nm.
Cell survival percentage was calculated from the mean absorbance of the 2 replicate wells for each sample, compared to the mean absorbance in the two control wells treated with DMSO only (100%). The IC50 was determined by fitting each data set to sigmoidal dose-response curves with a variable slope using the non-linear curve fit algorithm on the GraphPad Prism software (San Diego, Calif.).
All the experiments in this report were carried out and tested in three independent experiments. Data are reported as the mean of the three independent replicates.

In order of falling IC50:
1. C=C1C[C@H]2C=Nc3cc(OCc4cc(C(=O)O)cc(COc5cc6c(cc5OC)C(=O)N5CC(=C)C[C@H]5C=N6)n4)c(OC)cc3C(=O)N2C1 [Compound 56, 2,6-Bis((((S)-7-methoxy-2-methylene-5-oxo-2,3,5,11a-tetrahydro-1H-benzo[e]pyrrolo[1,2-a][1,4]diazepin-8-yl)oxy)methyl)isonicotinic acid]  20.7 nM
2. C=C1C[C@H]2C=Nc3cc(OCc4cc(COc5cc6c(cc5OC)C(=O)N5CC(=C)C[C@H]5C=N6)cc(C(=O)O)c4)c(OC)cc3C(=O)N2C1 [Compound 53, 3,5-bis((((S)-7-Methoxy-2-methylene-5-oxo-2,3,5,11a-tetrahydro-1H-benzo[e]pyrrolo[1,2-a][1,4]diazepin-8-yl)oxy)methyl)benzoic acid]  4.31 nM
3. C=C1C[C@H]2C=Nc3cc(OCc4cc(COc5cc6c(cc5OC)C(=O)N5CC(=C)C[C@H]5C=N6)cc(C(=O)OC)c4)c(OC)cc3C(=O)N2C1 [Compound 51, Methyl 3,5-bis((((S)-7-methoxy-2-methylene-5-oxo-2,3,5,11a-tetrahydro-1H-benzo[e]pyrrolo[1,2-a][1,4]diazepin-8-yl)oxy)methyl)benzoate]  0.0685 nM
4. C=C1C[C@H]2C=Nc3cc(OCc4cccc(COc5cc6c(cc5OC)C(=O)N5CC(=C)C[C@H]5C=N6)c4)c(OC)cc3C(=O)N2C1 [Compound 58, (11aS,11a′S)-8,8′-((1,3-phenylenebis(methylene))bis(oxy))bis(7-methoxy-2-methylene-1,2,3,11a-tetrahydro-5H-benzo[e]pyrrolo[1,2-a][1,4]diazepin-5-one), reference compound]  0.0172 nM
5. C=C1C[C@H]2C=Nc3cc(OCc4cc(C(=O)OC)cc(COc5cc6c(cc5OC)C(=O)N5CC(=C)C[C@H]5C=N6)n4)c(OC)cc3C(=O)N2C1 [Compound 55, Methyl 2,6-bis((((S)-7-methoxy-2-methylene-5-oxo-2,3,5,11a-tetrahydro-1H-benzo[e]pyrrolo[1,2-a][1,4]diazepin-8-yl)oxy)methyl)isonicotinate]  0.0168 nM
